According to ChEMBL document CHEMBL5042501, “Gwanakosides A and B, 6-Deoxy-α-l-talopyranose-Bearing Aromatic Metabolites from a Streptomyces sp. and Coculture with Pandoraea sp” (J Nat Prod, 2022):
Values after ≈ are worked out from the molar mass of the structure shown.

What was measured:
Trichophyton rubrum = experiment: Antifungal activity against Trichophyton rubrum NBRC 9185 assessed as fungal growth inhibition incubated for 96 hrs; assay type: functional
[1] = tested on: Mycobacterium tuberculosis; experiment: Antibacterial activity against Mycobacterium tuberculosis mc2 6230 assessed as bacterial growth inhibition incubated for 5 days by resazurin microtiter assay; assay type: functional; settings: mc2 6230, 120 h, time 5 day
HCT-116 = experiment: Antiproliferative activity against human HCT116 cells assessed as reduction in cell viability incubated for 72 hr by SRB assay; assay type: functional, cell-based; settings: HCT-116, 72 h
Klebsiella pneumoniae = experiment: Antibacterial activity against Klebsiella pneumoniae ATCC 10031 assessed as inhibition of bacterial growth incubated for 24 hr by CLSI based broth microdilution method; assay type: functional
Enterococcus faecium = experiment: Antibacterial activity against Enterococcus faecium ATCC 19434 assessed as inhibition of bacterial growth incubated for 24 hr by CLSI based broth microdilution method; assay type: functional
SK-HEP1 = experiment: Antiproliferative activity against human SK-HEP1 cells assessed as reduction in cell viability incubated for 72 hr by SRB assay; assay type: functional, cell-based; settings: SK-HEP1, 72 h
Candida albicans = experiment: Antifungal activity against Candida albicans ATCC 10231 assessed as fungal growth inhibition incubated for 24 hrs; assay type: functional
Aspergillus fumigatus = experiment: Antifungal activity against Aspergillus fumigatus HIC 6094 assessed as fungal growth inhibition incubated for 48 hrs; assay type: functional
SNU-638 = experiment: Antiproliferative activity against human SNU-638 cells assessed as reduction in cell viability incubated for 72 hr by SRB assay; assay type: functional, cell-based; settings: SNU-638, 72 h
Enterococcus faecalis = experiment: Antibacterial activity against Enterococcus faecalis ATCC 19433 assessed as inhibition of bacterial growth incubated for 24 hr by CLSI based broth microdilution method; assay type: functional
Escherichia coli = experiment: Antibacterial activity against Escherichia coli ATCC 25922 assessed as inhibition of bacterial growth incubated for 24 hr by CLSI based broth microdilution method; assay type: functional
[2] = Inhibition of Staphylococcus aureus ATCC6538p Sortase A incubated for 1 hr by fluorescence spectrophotometric analysis
MDA-MB-231 = experiment: Antiproliferative activity against human MDA-MB-231 cells assessed as reduction in cell viability incubated for 72 hr by SRB assay; assay type: functional, cell-based; settings: MDA-MB-231, 72 h
Salmonella enterica = experiment: microbe, parasite or virus in culture; settings: ATCC 14028, 24 h
Description: Antibacterial activity against Salmonella enterica ATCC 14028 assessed as inhibition of bacterial growth incubated for 24 hr by CLSI based broth microdilution method

A498 = experiment: Antiproliferative activity against human A498 cells assessed as reduction in cell viability incubated for 72 hr by SRB assay; assay type: functional, cell-based; settings: A498, 72 h
Staphylococcus aureus = experiment: Antibacterial activity against Staphylococcus aureus ATCC 25923 assessed as inhibition of bacterial growth incubated for 24 hr by CLSI based broth microdilution method; assay type: functional
[3] = tested on: Trichophyton mentagrophytes; experiment: Antifungal activity against Trichophyton mentagrophytes IFM 40996 assessed as fungal growth inhibition incubated for 96 hrs; assay type: functional

| Structure (SMILES) | MIC (Trichophyton rubrum) | MIC [1] | IC50 (HCT-116) | MIC (Klebsiella pneumoniae) | MIC (Enterococcus faecium) | IC50 (SK-HEP1) | MIC (Candida albicans) | MIC (Aspergillus fumigatus) | IC50 (SNU-638) | MIC (Enterococcus faecalis) | MIC (Escherichia coli) | IC50 [2] | IC50 (MDA-MB-231) | MIC (Salmonella enterica) | IC50 (A498) | MIC (Staphylococcus aureus) | MIC [3] | MIC50 [1] |
| --- | --- | --- | --- | --- | --- | --- | --- | --- | --- | --- | --- | --- | --- | --- | --- | --- | --- | --- |
| Cc1c(Cl)c(O[C@@H]2O[C@@H](C)[C@@H](O)[C@@H](O)[C@H]2O)c2cc(O[C@@H]3O[C@@H](C)[C@@H](O)[C@@H](O)[C@H]3O)ccc2c1Cl | > 128 µg/mL | 15 µg/mL (≈ 28 µM) | 5.6 µM | 32 µg/mL (≈ 59.8 µM) | 16 µg/mL (≈ 29.9 µM) | 14.7 µM | > 128 µg/mL | > 128 µg/mL | 8.6 µM | 16 µg/mL (≈ 29.9 µM) | > 128 µg/mL | 63.3 µg/mL (≈ 118 µM) | 19.4 µM | 16 µg/mL (≈ 29.9 µM) | 18.8 µM | 8 µg/mL (≈ 14.9 µM) | > 128 µg/mL |  |
| Cc1cc2c(c(O[C@@H]3O[C@@H](C)[C@@H](O)[C@@H](O)[C@H]3O)c1)-c1cc3c(c(O)c1[C@@H](O)C2)C(=O)c1c(O)cc(O)cc1C3=O |  |  | > 20 µM | > 128 µg/mL | 128 µg/mL (≈ 233 µM) | > 20 µM |  |  | > 20 µM | > 128 µg/mL | > 128 µg/mL |  | > 20 µM | > 128 µg/mL | > 20 µM | > 128 µg/mL |  |  |
| CC1(C)S[C@@H]2[C@H](NC(=O)[C@H](N)c3ccccc3)C(=O)N2[C@H]1C(=O)O [AMPICILLIN] |  |  |  |  | 0.25 µg/mL (≈ 0.715 µM) |  |  |  |  | 0.5 µg/mL (≈ 1.43 µM) | 8 µg/mL (≈ 22.9 µM) |  |  | 0.13 µg/mL (≈ 0.372 µM) |  | 0.13 µg/mL (≈ 0.372 µM) |  |  |
| COc1nc2ccc(Br)cc2cc1[C@@H](c1ccccc1)[C@@](O)(CCN(C)C)c1cccc2ccccc12 [BEDAQUILINE] |  |  |  |  |  |  |  |  |  |  |  |  |  |  |  |  |  | 0.5 µg/mL (≈ 0.9 µM) |
| COc1cc([C@@H]2c3cc4c(cc3[C@@H](O[C@@H]3O[C@@H]5CO[C@@H](C)O[C@H]5[C@H](O)[C@H]3O)[C@H]3COC(=O)[C@H]23)OCO4)cc(OC)c1O [ETOPOSIDE] |  |  | 0.25 µM |  |  | 0.22 µM |  |  | 0.4 µM |  |  |  | 2.8 µM |  | 0.23 µM |  |  |  |
| CN(C)[C@@H]1C(O)=C(C(N)=O)C(=O)[C@@]2(O)C(O)=C3C(=O)c4c(O)cccc4[C@@](C)(O)[C@H]3C[C@@H]12 [TETRACYCLINE] |  |  |  | 0.25 µg/mL (≈ 0.563 µM) |  |  |  |  |  |  |  |  |  |  |  |  |  |  |
